Laboratory results from publication PMC2118486 (The Journal of Experimental Medicine, 2007).

Experiments:
[1] = mouse, 37°C, up to 60 min
[2] = test system: purified peritoneal mast cells (Mc-cpa); assay type: in vitro ADME, mouse; details: Mc-cpaY356L,E378A mast cells, 2 μM ionomycin, 37°C, 60 min; reduced (DTT/IAA) sample; MALDI-TOF

In the case of “Cys-Ser-Cys-Ser-Ser-Leu-Met-Asp-Lys-Glu-Cys-Val-Tyr-Phe-Cys-His-Leu-Asp-Ile-Ile-Trp”, the not cleaved [1] is reported as “ET-1 (1–21) was also maintained”.
In the case of sarafotoxin 6b [S6b], the “internal cleavage of S6b” value [2] is reported as “reaction products consistent with the masses of 1–13 and 1–14 fragments of S6b”.
